Reference: ChEMBL document CHEMBL5729195, “Heterocyclic compounds useful as aurora a selective inhibitors” (2022)
pIC50: −log10 of the molar value.

Molecular target: T1, Aurora kinase A (Homo sapiens, UniProt O14965)
T1 sequence (O14965 whole entry): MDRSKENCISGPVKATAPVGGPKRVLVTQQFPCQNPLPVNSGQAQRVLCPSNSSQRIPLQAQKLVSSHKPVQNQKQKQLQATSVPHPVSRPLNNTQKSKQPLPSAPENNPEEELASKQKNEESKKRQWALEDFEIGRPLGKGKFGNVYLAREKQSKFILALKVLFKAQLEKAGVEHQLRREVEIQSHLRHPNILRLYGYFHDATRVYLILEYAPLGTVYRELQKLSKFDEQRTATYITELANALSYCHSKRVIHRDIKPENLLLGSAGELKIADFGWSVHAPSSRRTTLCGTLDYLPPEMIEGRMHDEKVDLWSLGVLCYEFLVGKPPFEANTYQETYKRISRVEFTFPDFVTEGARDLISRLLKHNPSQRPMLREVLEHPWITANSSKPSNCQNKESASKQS
Assay: The testing compound was diluted up to 100× final concentration in a 384-well plate. Transfer 250 nL of the compound dilution to a 384-well assay plate using Echo 550.

pIC50: 8.96
Structure (SMILES): Cc1cc(Nc2cc(F)cc(C[C@@]3(C(=O)O)CCN(Cc4cccc(Cl)c4F)[C@H](C)C3)n2)n[nH]1
